Among the test systems are ACHN renal; CAKI-1 renal; COLO 205 colon; HCT-116 colon; HOP-62 NSCLC; HOP-92 NSCLC; LOX IMVI melanoma; MDA-MB-435; NCI-H23 lung; OVCAR-4 ovarian; PC-3 prostate; RPMI-8226 leukemia; SK-MEL-28 melanoma; SN12C renal; SR leukemia; T-47D breast; TK-10 renal; UACC-257 melanoma; DU-145 prostate; M14 melanoma.
What all share (assay): NCI anticancer screen, dose series, 48 h

Structures are written as SMILES.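 Following 48 hours of exposure in 96-well plates, responses at five concentrations were used to interpolate endpoints linearly. At the TGI there is no net growth.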 Where only a bound is given, the exact number is not on record here.

Regarding `CCCC(=O)Nc1cc(/C=C/C(=O)N2CC(CCl)c3c2cc(OCc2ccccc2)c2[nH]cc(C)c32)n(C)c1` (stereo unspecified), the TGI in the assay with ACHN renal was 0.0833 µM; in the assay with CAKI-1 renal, 2.09 µM; with COLO 205 colon, 1.22 µM; in the assay with HCT-116 colon, 0.225 µM; with HOP-62 NSCLC, 0.453 µM; with HOP-92 NSCLC, 0.213 µM. Besides, the TGI is 6.71 µM in the assay on LOX IMVI melanoma; 0.918 µM in the assay with MDA-MB-435; 0.0654 µM in the assay on NCI-H23 lung; 0.889 µM in the assay with OVCAR-4 ovarian; above 13.1 µM in the assay on PC-3 prostate; 1.3 µM with RPMI-8226 leukemia. Also, the TGI with SK-MEL-28 melanoma is 1.54 µM; in the assay with SN12C renal it was above 25 µM; with SR leukemia, 0.0722 µM; in the assay on T-47D breast, 1.7 µM; in the assay with TK-10 renal it was 2.47 µM; in the assay on UACC-257 melanoma, 0.868 µM.

With `O=C(Cn1cc(-c2ccccc2)nn1)NC1CCCCC1`, the TGI in the assay on ACHN renal, in the assay on CAKI-1 renal, with COLO 205 colon, with DU-145 prostate, in the assay with HCT-116 colon and in the assay with HOP-62 NSCLC was above 100 µM in each case. Also, the TGI in the assay with HOP-92 NSCLC, in the assay on LOX IMVI melanoma, with M14 melanoma, in the assay on MDA-MB-435, with NCI-H23 lung and with OVCAR-4 ovarian was above 100 µM each time. Further, the TGI in the assay on PC-3 prostate, with RPMI-8226 leukemia, with SK-MEL-28 melanoma, in the assay on SN12C renal, with SR leukemia and in the assay with TK-10 renal was above 100 µM in each case. Moreover, in the assay on UACC-257 melanoma, the TGI was above 100 µM.

On to `COC(=O)/C(=N\NC(N)=O)C(C(=O)C(=O)Nc1ccccc1OC)c1nc2ccc([N+](=O)[O-])cc2[nH]c1=O` (stereo unspecified), for which the TGI in the assay with ACHN renal, with CAKI-1 renal, with HCT-116 colon, in the assay with HOP-62 NSCLC, in the assay on HOP-92 NSCLC and in the assay with LOX IMVI melanoma was above 100 µM in each case. Moreover, the TGI in the assay with M14 melanoma, in the assay with MDA-MB-435, with NCI-H23 lung, in the assay with OVCAR-4 ovarian, with PC-3 prostate and in the assay with RPMI-8226 leukemia was above 100 µM each time. Also, the TGI with SK-MEL-28 melanoma, in the assay on SN12C renal, in the assay on SR leukemia, with T-47D breast, with TK-10 renal and in the assay with UACC-257 melanoma was above 100 µM throughout.

For `Cc1ccc2c(=O)cc(Cc3cccs3)[nH]c2n1`, the TGI in the assay with CAKI-1 renal, in the assay with COLO 205 colon, in the assay on DU-145 prostate, with HCT-116 colon, in the assay on HOP-62 NSCLC and in the assay with LOX IMVI melanoma was above 100 µM in each case. For the same compound, the TGI in the assay on M14 melanoma, in the assay with MDA-MB-435, with NCI-H23 lung, with OVCAR-4 ovarian, in the assay on PC-3 prostate and in the assay with RPMI-8226 leukemia was above 100 µM in each case. In addition, the TGI with SK-MEL-28 melanoma, in the assay on SN12C renal, in the assay with T-47D breast, in the assay with TK-10 renal and in the assay on UACC-257 melanoma was above 100 µM each time.

Turning to `C=C1CCCC2[C@](C)(CC3=C(Cl)C(=O)C=C(OC)C3=O)C(C)CC[C@]12C` (stereo partly specified), the TGI amounted to 10.7 µM in the assay with ACHN renal; 8.83 µM in the assay on CAKI-1 renal; 9.76 µM in the assay with COLO 205 colon; 15.2 µM with DU-145 prostate; 6.43 µM in the assay with HCT-116 colon; 13.5 µM in the assay with HOP-62 NSCLC. Moreover, the TGI amounted to 14.7 µM in the assay on HOP-92 NSCLC; 4.23 µM in the assay with LOX IMVI melanoma; 10.3 µM with M14 melanoma; 14.2 µM in the assay on MDA-MB-435; 13.1 µM in the assay on NCI-H23 lung; 14.2 µM in the assay with OVCAR-4 ovarian. Besides, the TGI was found to be 6.64 µM in the assay with PC-3 prostate; 14.6 µM in the assay with RPMI-8226 leukemia; 17 µM in the assay with SK-MEL-28 melanoma; 12.5 µM in the assay on SN12C renal; 13.6 µM in the assay on SR leukemia; 11.6 µM in the assay with TK-10 renal. Also, the TGI with UACC-257 melanoma turned out to be 13.6 µM.

Regarding `CC1=NN(C(=O)c2ccccc2O)C(=O)/C1=C/c1cccc(O)c1`, the TGI with ACHN renal was above 100 µM; in the assay with CAKI-1 renal, above 100 µM; with COLO 205 colon, above 86.9 µM; in the assay with DU-145 prostate, above 100 µM; with HCT-116 colon, above 100 µM; with HOP-92 NSCLC, above 100 µM. In addition, the TGI in the assay with LOX IMVI melanoma is above 80.5 µM; in the assay on M14 melanoma, 37 µM; with OVCAR-4 ovarian, above 100 µM; with PC-3 prostate, above 100 µM; in the assay with RPMI-8226 leukemia, above 100 µM; in the assay with SK-MEL-28 melanoma, above 100 µM. The TGI in the assay on SN12C renal, with SR leukemia, in the assay with T-47D breast, in the assay with TK-10 renal and with UACC-257 melanoma was above 100 µM in each case.

Regarding `CCOc1ccc(N/C(=C(/C(Cl)=C(/Cl)Nc2ccccc2)[N+](=O)[O-])n2nnc3ccccc32)cc1`, the TGI was above 100 µM in the assay on ACHN renal; 60.4 µM in the assay on CAKI-1 renal; 50.6 µM in the assay on COLO 205 colon; above 100 µM with DU-145 prostate; 56 µM with HCT-116 colon; 70.3 µM in the assay on HOP-62 NSCLC. Further, the TGI with HOP-92 NSCLC is 40.6 µM; in the assay with M14 melanoma, 34 µM; with MDA-MB-435 it was 87.5 µM; in the assay with NCI-H23 lung it was 32.6 µM; with OVCAR-4 ovarian it was above 100 µM; in the assay on PC-3 prostate it was 58.4 µM. Moreover, the TGI in the assay on RPMI-8226 leukemia was above 100 µM; with SK-MEL-28 melanoma, 54.5 µM; in the assay with SN12C renal it was 47.2 µM; with T-47D breast, above 100 µM; in the assay on TK-10 renal, above 100 µM; with UACC-257 melanoma, above 100 µM.

For `COc1ccc(N=C2S/C(=N\C(=Nc3ccccc3)SCc3ccccc3)N(c3ccccc3)C2=Nc2ccc(OC)cc2)cc1`, the TGI in the assay with COLO 205 colon, in the assay with HCT-116 colon, in the assay on HOP-62 NSCLC, in the assay on HOP-92 NSCLC, in the assay with M14 melanoma and with NCI-H23 lung was above 100 µM each time. The TGI with PC-3 prostate, in the assay with RPMI-8226 leukemia, in the assay on SK-MEL-28 melanoma, in the assay with SN12C renal, with SR leukemia and in the assay with T-47D breast was above 100 µM throughout. Further, the TGI with TK-10 renal and in the assay on UACC-257 melanoma was above 100 µM in each case.

Regarding `COc1cc2nc(Nc3cccc(Br)c3)nc(Nc3cccc(Br)c3)c2cc1OC`, the TGI in the assay on ACHN renal amounted to 29.4 µM; in the assay on CAKI-1 renal it was 29.8 µM; in the assay on COLO 205 colon, 27.7 µM; in the assay on DU-145 prostate, 34.1 µM; with HCT-116 colon, 31.4 µM; in the assay on HOP-62 NSCLC, 33.6 µM. Moreover, the TGI in the assay on HOP-92 NSCLC was 29.5 µM; with LOX IMVI melanoma, 30.4 µM; in the assay on M14 melanoma, 32.3 µM; in the assay with MDA-MB-435, 36 µM; with NCI-H23 lung, 33.3 µM; in the assay on OVCAR-4 ovarian, 30.9 µM. For the same compound, the TGI in the assay with PC-3 prostate is 41.6 µM; in the assay with SK-MEL-28 melanoma, 33.5 µM; with SN12C renal it was 31.4 µM; with T-47D breast it was 43.7 µM; with TK-10 renal, 39.3 µM.

Take `S=C(NNC1=NCCCCN1)Nc1ccc(Cl)cc1`: the TGI is 90.2 µM with ACHN renal; 0.0151 µM in the assay with CAKI-1 renal; 34.5 µM with COLO 205 colon; above 100 µM in the assay with HCT-116 colon; 31.7 µM with HOP-62 NSCLC; above 100 µM in the assay with HOP-92 NSCLC. Besides, the TGI is above 100 µM in the assay with LOX IMVI melanoma; 22.1 µM with M14 melanoma; above 100 µM in the assay with MDA-MB-435; above 100 µM in the assay with NCI-H23 lung; above 100 µM in the assay on OVCAR-4 ovarian; 62.8 µM in the assay with PC-3 prostate. In addition, the TGI with RPMI-8226 leukemia is above 100 µM; in the assay on SK-MEL-28 melanoma it was above 100 µM; with SR leukemia, 60.9 µM; in the assay on T-47D breast it was above 100 µM; with TK-10 renal, above 100 µM; with UACC-257 melanoma it was 43.9 µM.

As to `Cc1ccc(/C=N/n2c(Cc3ccccc3)n[nH]c2=O)cc1`, the TGI with ACHN renal, with CAKI-1 renal, in the assay with COLO 205 colon, in the assay with DU-145 prostate, in the assay with HCT-116 colon and with HOP-62 NSCLC was above 100 µM in each case. For the same compound, the TGI in the assay with HOP-92 NSCLC was 83.4 µM; with LOX IMVI melanoma, above 100 µM; in the assay with M14 melanoma it was above 100 µM; in the assay on NCI-H23 lung, above 100 µM; in the assay with OVCAR-4 ovarian, above 100 µM; in the assay on PC-3 prostate, above 100 µM. Besides, the TGI in the assay on RPMI-8226 leukemia, with SK-MEL-28 melanoma, in the assay with SN12C renal, in the assay with SR leukemia, in the assay on T-47D breast and with TK-10 renal was above 100 µM throughout. The TGI with UACC-257 melanoma was above 100 µM.

Take `C1=NCCN2CCN(CCN=Cc3ccccc3OCc3cccc(n3)COc3ccccc31)CC2`: the TGI was 25.6 µM in the assay with ACHN renal; above 50 µM with COLO 205 colon; 35.7 µM with DU-145 prostate; 18.8 µM in the assay with HCT-116 colon; above 50 µM with HOP-62 NSCLC; 41.6 µM in the assay on HOP-92 NSCLC. Also, the TGI in the assay on M14 melanoma was above 50 µM; with MDA-MB-435, 2.22 µM; in the assay with NCI-H23 lung, above 50 µM; with OVCAR-4 ovarian, 26.6 µM; in the assay on PC-3 prostate it was above 50 µM; in the assay on RPMI-8226 leukemia, 19.1 µM. Besides, the TGI in the assay with SK-MEL-28 melanoma is above 50 µM; in the assay with SN12C renal, 26.3 µM; with SR leukemia, 15.4 µM; with TK-10 renal, 24.9 µM; with UACC-257 melanoma, 34.4 µM.

The record behind these values is PubChem BioAssay (NCI).
